Experimental findings from patent US9234002B2, “Small peptide specific for lung cancer and application thereof” (Guangzhou Peptide Medical Technology Co., Ltd., priority 2012, dated 2016) are described below.

The subject of data set [1] is NCI-H1975 (adenocarcinoma) and L78 (squamous carcinoma). In words: Median survival of lung cancer bearing nude mice after treatment. The data set is classed as in vivo, human. Particulars: tumor bearing nude mice, tail vein injection.
Protocol: Two human lung cancer cell lines comprising NCI-H1975 (adenocarcinoma) and L78 (squamous carcinoma) were maintained in RPMI 1640 (GIBCO, Mississauga, Canada) supplemented with 10% heat-inactivated calf serum (HyClone, Logan, Utah) and L-glutamine (Beyotime, Jiangsu, China) in an incubator at 37° C. with 5% CO2. Cells were harvested with trypsin/EDTA, washed with PAS twice and re-suspended in free serum culture medium at a concentration of 5×10^6 cells/mL. The suspended cells (0.2 mL) were inoculated s.c. into the back of nude mice to establish the lung cancer models, respectively. There are twelve nude mice in each group of cancer model. Tumor growth and general states such as mental, diet and weight were monitored periodically. When tumors reached approximately 1 cm in mean diameter, the tumor bearing mice were used in therapeutic efficacy studies.
The tumor size was measured two dimensionally on days 3, 6, 9, 12, 15, 18, 21, 24, 27 and 30 after injection, while mice weight was also determined. The tumor volume was calculated by the formula volume V=(4/3)×π×R1×R2, where R1 is radius 1 and R2 is radius 2 and R1<R2. Growth curves of the tumors were constructed according to these tumor volumes.
Data set [2] is described as follows: Toxicity of radiotherapeutic agent in mice bearing lung cancer cells (hematology, serum biochemistry, histopathology). Format: in vivo. As to the method:
After treatment with radiotherapeutic agent for three weeks, the mice were sacrificed and the major tissues or organs such as blood, liver, kidneys, heart, lungs and spleen were removed completely. A routine blood test was performed using an automatic hematology analyzer to measure the following parameters: white blood cell (WBC), red blood cell (RBC) and platelet (PLT) count. Clinical biochemicals parameters measured with an automated biochemical analyzer were aspartate transferase (AST), alanine transferase (ALT), blood urea nitrogen (BUN) and creatinine (CRE). Histopathological and ultrastructural observations were performed on the preserved organs and tissues stated above.

The mark [3] stands for this setting: mice bearing lung cancer (24 h).

Molecules are shown by their SMILES.

In turn, `[131I-].[Na+]` [^131I, iodine-131] showed a median survival time in data set [1] of 42 days. In data set [2] (setting [3]), the ALT amounted to 60.7 ± 7.8 U/L, the AST amounted to 171.7 ± 0.8 U/L, the BUN is 9.4 ± 1.3 mmol/L and the CRE was determined as 42.7 ± 3.8 µmol/L. In data set [2] (setting [3]), this molecule had a PLT of 991.2 ± 52.5 G/L, an RBC of 7.8 ± 0.2 T/L and a WBC of 13.6 ± 0.7 G/L. In addition, the “leukocyte count versus control” value in data set [2] (mice bearing lung cancer cells) was “decrease”.
